Measured values as given in patent publication US8852664B2, “Neo-menthyl derivatives as flavor materials” (Symrise AG, priority 2008, dated 2014).

Tests used:
Assay type in all cases: in vivo
[1] = Flavor comparison in chicken aroma base (FIG. 2), panel of trained testers; conditions: 1 ppm in chicken aroma base vs base with 0.2 wt. % standard aroma (containing MSG)
From the text: Here, a base for a chicken aroma is compared with (i) such a base having 1 ppm of the pure-enantiomer compound 1-((1S,2S,5R)-2-isopropyl-5-methyl-cyclohexyl)-3-(3-methoxy-propyl)-urea (1) added and (ii) with such a base having 0.2 wt. % of a standard aroma (containing MSG) added.
The flavor of the chicken base (solid dark line) was compared with the aid of tasting by a panel of trained testers with the flavor firstly of such a base to which 1 ppm of 1-((1S,2S,5R)-2-Isopropyl-5-methyl-cyclohexyl)-3-(3-methoxy-propyl)-urea (1) was added (solid light line), and secondly such a base to which 0.2 wt. % of a standard chicken aroma containing sodium glutamate was added (dotted line).
(§1) The testers evaluated the strength of the test directions indicated, in each case by specifying marks on a scale of from 0 (no corresponding flavor) to 8 (very strong corresponding flavor). The average values of the respective marks are represented.

[2] = Flavor profile determined by a trained panel of at least 5 testers
Protocol: The flavor profiles were determined by a trained panel of at least 5 testers by tasting against a 0.5% strength salt and a 0.5% strength sugar solution

[3] = Flavor comparison in American beef extract base (FIG. 1), panel of trained testers; conditions: 1 ppm of 1:1 mixture in American beef extract base vs base with 0.05 wt. % MSG
From the text: This is also shown by the spider diagram appended as FIG. 1, in which an American beef extract as a base is compared with (i) such a base having 1 ppm of a 1:1 mixture of 1-((1S,2S,5R)-2-isopropyl-5-methyl-cyclohexyl)-3-(3-methoxy-propyl)-urea (1) and 1-((1R,2R,5S)-2-isopropyl-5-methyl-cyclohexyl)-3-(3-methoxy-propyl)-urea (2) added and (ii) with such a base having 0.05 wt. % of MSG (sodium glutamate) added. The observations above apply accordingly for all mixtures to be used according to the invention.
The flavor of a 0.5% American beef extract as the base (solid dark line) was compared with the aid of tasting by a panel of trained testers with the flavor firstly of such a base to which 1 ppm of a mixture of 1-((1S,2S,5R)-2-isopropyl-5-methyl-cyclohexyl)-3-(3-methoxy-propyl)-urea (1) and 1-((1R,2R,5S)-2-Isopropyl-5-methyl-cyclohexyl)-3-(3-methoxy-propyl)-urea (2) was added (solid light line), and secondly such a base to which 0.05 wt. % MSG was added (dotted line).
as §1

[4] = Saltiness of a stock tasted against a reference series of the same stock with different salt contents; conditions: reference series 0.2%, 0.4%, 0.5% salt
From the text: In another test, the saltiness of a stock having a salt content of 0.3% and 5 ppm of an equimolar mixture of 1-(3-hydroxy-propyl)-3-((1S,2S,5R)-2-isopropyl-5-methyl-cyclohexyl)-urea (3) and 1-(3-hydroxy-propyl)-3-((1R,2R,5S)-2-isopropyl-5-methyl-cyclohexyl)-urea (4) added was tasted. The testers evaluated this stock against a reference series of this same stock with salt contents of 0.2%, 0.3%, 0.4% and 0.5%. The saltiness of the stock with a salt content of 0.3% and 5 ppm of an equimolar mixture of 1-(3-hydroxy-propyl)-3-((1S,2S,5R)-2-isopropyl-5-methyl-cyclohexyl)-urea (3) and 1-(3-hydroxy-propyl)-3-((1R,2R,5S)-2-isopropyl-5-methyl-cyclohexyl)-urea (4) added was evaluated with a saltiness of 0.36% on average.
In another test, the saltiness of a stock having a salt content of 0.3% and 3 ppm of an equimolar mixture of (3-methoxy-propyl)-carbamic acid (1S,2S,5R)-2-isopropyl-5-methyl-cyclohexyl ester (9) and (3-methoxy-propyl)-carbamic acid (1R,2R,5S)-2-isopropyl-5-methyl-cyclohexyl ester (10) was tasted. The testers evaluated this stock against a reference series of this same stock with salt contents of 0.2%, 0.3%, 0.4% and 0.5%. […]

[5] = trained panel of at least 5 testers, tasting against a 0.5% strength salt and a 0.5% strength sugar solution
[6] = table of further examples, prepared from racemic neo-menthol or neo-menthylamine and tasted

Compound	Flavor Profile [2, 5]	Flavor Profile [2, 6]	further results
COCCCNC(=O)N[C@H]1C[C@H](C)CC[C@H]1C(C)C [(1), 1-((1S,2S,5R)-2-isopropyl-5-methyl-cyclohexyl)-3-(3-methoxy-propyl)-urea]	salty, long-lasting, umami, no by notes		flavor character compared with standard aroma containing MSG [1]: genuine MSG-like character
1-((1S,2S,5R)-2-Isopropyl-5-methyl-cyclohexyl)-3-(3-methoxy-propyl)-urea (1)/1-((1R,2R,5S)-2-isopropyl-5-methyl-cyclohexyl)-3-(3-methoxy-propyl)-urea (2) [Synthesis Example 1]	sweet, salty, metallic, umami		flavor compared with sodium glutamate (MSG) [3]: clear umami flavor very closely approximating sodium glutamate (MSG), which also significantly enhances the saltiness of the base but without tasting unpleasantly sweet
1-(3-Hydroxy-propyl)-3-((1S,2S,5R)-2-isopropyl-5-methyl-cyclohexyl)-urea (3)/1-(3-Hydroxy-propyl)-3-((1R,2R,5S)-2-isopropyl-5-methyl-cyclohexyl)-urea (4) [Synthesis Example 2]	fishy, salty, weakly umami		saltiness evaluated on average ([4]; stock with salt content 0.3% and 5 ppm added): 0.36%
CCOCCCNC(=O)N[C@H]1C[C@H](C)CC[C@H]1C(C)C (racemic)		fatty, tallow, dry- dusty, long-lasting, umami	
CC(C)[C@@H]1CC[C@@H](C)C[C@@H]1NC(=O)NC1CCCC1 (racemic)		bitter, astringent, long-lasting, salty, metallic	
CC(C)[C@@H]1CC[C@@H](C)C[C@@H]1NC(=O)NCCO (racemic)		alga, roasted note, umami, sweet	
CC(C)[C@@H]1CC[C@@H](C)C[C@@H]1NC(=S)NC1CCCC1 (racemic)		bitter, long-lasting, umami, metallic	
4-((1S,2S,5R)-2-Isopropyl-5-methyl-cyclohexyloxycarbonylamino)-butyric acid ethyl ester (11)/4-((1R,2R,5S)-2-isopropyl-5-methyl-cyclohexyloxycarbonylamino)-butyric acid ethyl ester (12) [Synthesis Example 6]	bitter, salty, umami		
CC(C)[C@@H]1CC[C@@H](C)C[C@@H]1NC(=S)NC1CC1 (racemic)		bitter, mouthfeel, umami	
CC(C)[C@@H]1CC[C@@H](C)C[C@@H]1OC(=O)NCCCCO (racemic)		slightly bitter, salty, umami	
(3-Methoxy-propyl)-carbamic acid (1S,2S,5R)-2-isopropyl-5-methyl-cyclohexyl ester (9) and (3-methoxy-propyl)-carbamic acid (1R,2R,5S)-2-isopropyl-5-methyl-cyclohexyl ester (10) [Synthesis Example 5]	sweet, salty, umami, slightly bitter		saltiness evaluated on average ([4]; stock with salt content 0.3% and 3 ppm added): 0.35%
CC(C)[C@@H]1CC[C@@H](C)C[C@@H]1OC(=O)NC1CC1 (racemic)		bitter, salty, umami	
CC(C)[C@@H]1CC[C@@H](C)C[C@@H]1NC(=O)NCc1ccc2c(c1)OCO2 (racemic)		salty, weakly umami	
COCC(C)NC(=S)N[C@H]1C[C@H](C)CC[C@H]1C(C)C (mixture of isomers)		bitter, slightly umami	
CC(C)[C@@H]1CC[C@@H](C)C[C@@H]1OC(=O)NCC1COC(C)(C)O1 (mixture of isomers)		sweet, bitter, caramel, salty	
CCOC(=O)CCCNC(=O)O[C@@H]1C[C@@H](C)CC[C@@H]1C(C)C [(12), 4-((1R,2R,5S)-2-isopropyl-5-methyl-cyclohexyloxycarbonylamino)-butyric acid ethyl ester]	salty, umami, delayed and weaker in comparison with the racemate		
